Data taken from PMC5218480 (PLoS ONE, 2017).

System: MV-4-11 cells
Experiment: Gene expression microarray analysis (Affymetrix PrimeView) and GSEA
Format: cell-based, human
Set-up: RFU PODN (11730768_x_at) / Fold change /veh PODN (11730768_x_at) / RFU LINC00158 (11744669_a_at) / Fold change /veh LINC00158 (11744669_a_at) / RFU DUSP10 (11751237_a_at) / Fold change /veh DUSP10 (11751237_a_at) / RFU ID3 (11757404_x_at) / Fold change /veh ID3 (11757404_x_at) / RFU PLEKHG5 (11737974_s_at) / Fold change /veh PLEKHG5 (11737974_s_at) / RFU LRRC4B (11730491_at) / Fold change /veh LRRC4B (11730491_at) / RFU GIMAP4 (11747438_a_at) / Fold change /veh GIMAP4 (11747438_a_at) / RFU KRT8 (11758183_x_at) / Fold change /veh KRT8 (11758183_x_at) / RFU CNN1 (11734310_a_at) / Fold change /veh CNN1 (11734310_a_at) / RFU VPS37D (11726825_at) / Fold change /veh VPS37D (11726825_at) / RFU C10orf10 (11716522_x_at) / Fold change /veh C10orf10 (11716522_x_at) / RFU KIR2DL2 /// KIR2DL4 /// KIR2DL5A /// KIR2DL5B /// KIR2DS1 /// KIR2DS2 /// KIR2DS3 /// KIR2DS4 /// KIR3DL3 /// KIR3DL3 /// KIR3DS1 (11738374_at) / Fold change /veh KIR2DL2 /// KIR2DL4 /// KIR2DL5A /// KIR2DL5B /// KIR2DS1 /// KIR2DS2 /// KIR2DS3 /// KIR2DS4 /// KIR3DL3 /// KIR3DL3 /// KIR3DS1 (11738374_at) / RFU C1QL1 (11718748_at) / Fold change /veh C1QL1 (11718748_at) / RFU TMPRSS4 (11747572_a_at) / Fold change /veh TMPRSS4 (11747572_a_at) / RFU HAMP (11756126_x_at) / Fold change /veh HAMP (11756126_x_at) / RFU RNFT2 (11725882_a_at) / Fold change /veh RNFT2 (11725882_a_at) / RFU NR4A2 (11747474_a_at) / Fold change /veh NR4A2 (11747474_a_at) / RFU ABCC12 (11746883_a_at) / Fold change /veh ABCC12 (11746883_a_at) / RFU TMEM136 (11760407_x_at) / Fold change /veh TMEM136 (11760407_x_at) / RFU CLDN22 /// WWC2 (11732394_at) / Fold change /veh CLDN22 /// WWC2 (11732394_at) / RFU HLA-DPB1 (11760878_x_at) / Fold change /veh HLA-DPB1 (11760878_x_at) / RFU SPINT1 (11716480_a_at) / Fold change /veh SPINT1 (11716480_a_at) / RFU GAP43 (11754022_s_at) / Fold change /veh GAP43 (11754022_s_at) / RFU A4GNT (11735810_at) / Fold change /veh A4GNT (11735810_at) / RFU PRB3 (11715151_x_at) / Fold change /veh PRB3 (11715151_x_at) / RFU TUBB4B (11761932_at) / Fold change /veh TUBB4B (11761932_at) / RFU CAPN14 (11732068_a_at) / Fold change /veh CAPN14 (11732068_a_at) / RFU TMCC2 (11721928_a_at) / Fold change /veh TMCC2 (11721928_a_at) / RFU IRGQ (11745062_a_at) / Fold change /veh IRGQ (11745062_a_at) / RFU FAM174B (11720279_a_at) / Fold change /veh FAM174B (11720279_a_at) / RFU TMPRSS4 (11748680_a_at) / Fold change /veh TMPRSS4 (11748680_a_at) / RFU FAM212B (11763350_a_at) / Fold change /veh FAM212B (11763350_a_at) / RFU PLEKHG5 (11743358_a_at) / Fold change /veh PLEKHG5 (11743358_a_at) / RFU ZSCAN30 (11745921_a_at) / Fold change /veh ZSCAN30 (11745921_a_at) / RFU CMKLR1 (11741424_a_at) / Fold change /veh CMKLR1 (11741424_a_at) / RFU LOC101060620 /// MAPK8IP1 (11723275_at) / Fold change /veh LOC101060620 /// MAPK8IP1 (11723275_at) / RFU SPTSSB (11747773_x_at) / Fold change /veh SPTSSB (11747773_x_at) / RFU PRSS12 (11739890_at) / Fold change /veh PRSS12 (11739890_at) / RFU BIN1 (11741810_x_at) / Fold change /veh BIN1 (11741810_x_at) / RFU WNT11 (11732464_a_at) / Fold change /veh WNT11 (11732464_a_at) / RFU C10orf10 (11716521_a_at) / Fold change /veh C10orf10 (11716521_a_at) / RFU C5orf56 (11738089_at) / Fold change /veh C5orf56 (11738089_at) / RFU CYB561 (11721691_x_at) / Fold change /veh CYB561 (11721691_x_at) / RFU ANKRD19P (11752326_a_at) / Fold change /veh ANKRD19P (11752326_a_at) / RFU OR2T12 /// OR2T33 /// OR2T8 (11738714_s_at) / Fold change /veh OR2T12 /// OR2T33 /// OR2T8 (11738714_s_at) / RFU VCAN (11748164_a_at) / Fold change /veh VCAN (11748164_a_at) / RFU JSRP1 (11732532_at) / Fold change /veh JSRP1 (11732532_at) / RFU KRTAP10-11 (11738290_x_at) / Fold change /veh KRTAP10-11 (11738290_x_at) / RFU MYO3A (11730013_a_at) / Fold change /veh MYO3A (11730013_a_at) / RFU EBF3 (11725865_a_at) / Fold change /veh EBF3 (11725865_a_at) / RFU CAMK2N1 (11719241_x_at) / Fold change /veh CAMK2N1 (11719241_x_at) / RFU C5orf56 (11738088_a_at) / Fold change /veh C5orf56 (11738088_a_at) / RFU OLFML3 (11715873_a_at) / Fold change /veh OLFML3 (11715873_a_at) / RFU LOC100653217 /// NTM (11731650_a_at) / Fold change /veh LOC100653217 /// NTM (11731650_a_at) / RFU MAPK11 (11762145_a_at) / Fold change /veh MAPK11 (11762145_a_at) / RFU FIZ1 (11724087_x_at) / Fold change /veh FIZ1 (11724087_x_at) / RFU OASL (11726364_x_at) / Fold change /veh OASL (11726364_x_at) / RFU SOX15 (11748057_x_at) / Fold change /veh SOX15 (11748057_x_at) / RFU CD79A (11719716_a_at) / Fold change /veh CD79A (11719716_a_at) / RFU HIST1H1D (11736915_at) / Fold change /veh HIST1H1D (11736915_at) / RFU CASKIN2 (11723855_a_at) / Fold change /veh CASKIN2 (11723855_a_at) / RFU LOC730098 (11760151_x_at) / Fold change /veh LOC730098 (11760151_x_at) / RFU OR4N2 (11742367_at) / Fold change /veh OR4N2 (11742367_at) / RFU PRRT2 (11749266_a_at) / Fold change /veh PRRT2 (11749266_a_at) / RFU SNX32 (11753110_a_at) / Fold change /veh SNX32 (11753110_a_at) / RFU CDHR5 (11726645_a_at) / Fold change /veh CDHR5 (11726645_a_at) / RFU RCAN1 (11760418_a_at) / Fold change /veh RCAN1 (11760418_a_at) / RFU FAM167A (11723789_a_at) / Fold change /veh FAM167A (11723789_a_at) / RFU FAM26E (11764081_at) / Fold change /veh FAM26E (11764081_at) / RFU ISYNA1 (11749810_s_at) / Fold change /veh ISYNA1 (11749810_s_at) / RFU ACY1 (11761880_at) / Fold change /veh ACY1 (11761880_at) / RFU 11764098_at / Fold change /veh 11764098_at / RFU SAMD14 (11745864_x_at) / Fold change /veh SAMD14 (11745864_x_at) / RFU NPB (11741838_a_at) / Fold change /veh NPB (11741838_a_at) / RFU TMPRSS6 (11731388_a_at) / Fold change /veh TMPRSS6 (11731388_a_at) / RFU KRTAP10-2 (11738614_at) / Fold change /veh KRTAP10-2 (11738614_at) / RFU ARHGAP8 /// PRR5-ARHGAP8 (11727945_x_at) / Fold change /veh ARHGAP8 /// PRR5-ARHGAP8 (11727945_x_at) / RFU KRTAP5-7 /// NADSYN1 (11734609_at) / Fold change /veh KRTAP5-7 /// NADSYN1 (11734609_at) / RFU RASL12 (11751679_a_at) / Fold change /veh RASL12 (11751679_a_at) / RFU CDKN2B (11736163_a_at) / Fold change /veh CDKN2B (11736163_a_at) / RFU PRF1 (11729649_at) / Fold change /veh PRF1 (11729649_at) / RFU, ZNF638 /// ZNF638-IT1 / Fold change vs veh, ZNF638 /// ZNF638-IT1 / RFU, PANK3 / Fold change vs veh, PANK3 / RFU, SH3YL1 / Fold change vs veh, SH3YL1 / RFU, ZEB2 / Fold change vs veh, ZEB2 / RFU, NRIP1 / Fold change vs veh, NRIP1 / RFU, PTTG1IP / Fold change vs veh, PTTG1IP / RFU, CAPN2 / Fold change vs veh, CAPN2 / RFU, MED14 / Fold change vs veh, MED14 / RFU, SNORA58 / Fold change vs veh, SNORA58 / RFU, C1orf63 / Fold change vs veh, C1orf63 / RFU, LRRFIP1 / Fold change vs veh, LRRFIP1 / RFU, NDUFAF7 / Fold change vs veh, NDUFAF7 / RFU, SLC12A2 / Fold change vs veh, SLC12A2 / RFU, IBTK / Fold change vs veh, IBTK / RFU, ESF1 / Fold change vs veh, ESF1 / Fold change vs veh, TMEM50B / RFU, TAOK1 / Fold change vs veh, TAOK1 / RFU, ACBD3 / Fold change vs veh, ACBD3 / RFU, TMA16 / Fold change vs veh, TMA16 / RFU, RWDD3 / Fold change vs veh, RWDD3 / RFU, BCAT1 / Fold change vs veh, BCAT1 / RFU, EDEM3 / Fold change vs veh, EDEM3 / RFU, TMEM33 / Fold change vs veh, TMEM33 / RFU, WDR75 / Fold change vs veh, WDR75 / RFU, AHCTF1 / Fold change vs veh, AHCTF1 / RFU, TFRC / Fold change vs veh, TFRC / RFU, ZDHHC17 / Fold change vs veh, ZDHHC17 / RFU, NOM1 / Fold change vs veh, NOM1 / RFU, ARL8B / Fold change vs veh, ARL8B / RFU, ZBTB11 / Fold change vs veh, ZBTB11 / RFU, TAMM41 / Fold change vs veh, TAMM41 / RFU, KIAA1704 /// LOC100996395 / Fold change vs veh, KIAA1704 /// LOC100996395 / RFU, ING1 / Fold change vs veh, ING1 / RFU, TRMT61B / Fold change vs veh, TRMT61B / RFU, FUBP3 / Fold change vs veh, FUBP3 / RFU, TP53 / Fold change vs veh, TP53 / RFU, TNKS2 / Fold change vs veh, TNKS2 / RFU, ZFP14 / Fold change vs veh, ZFP14 / RFU, ACTR2 / Fold change vs veh, ACTR2 / RFU, PPP3R1 / Fold change vs veh, PPP3R1 / RFU, PIK3R1 / Fold change vs veh, PIK3R1 / RFU, HNRNPA1 / Fold change vs veh, HNRNPA1 / RFU, RNF170 / Fold change vs veh, RNF170 / RFU, ZNF28 / Fold change vs veh, ZNF28 / RFU, RNGTT / Fold change vs veh, RNGTT / RFU, OGT / Fold change vs veh, OGT / RFU, BRD1 / Fold change vs veh, BRD1 / RFU, MARS / Fold change vs veh, MARS / RFU, ZNF655 / Fold change vs veh, ZNF655 / RFU, FAHD1 / Fold change vs veh, FAHD1 / RFU, BDP1 / Fold change vs veh, BDP1 / RFU, LRRCC1 / Fold change vs veh, LRRCC1 / RFU, ARID1A / Fold change vs veh, ARID1A / RFU, ZNF146 / Fold change vs veh, ZNF146 / RFU, ZNF330 / Fold change vs veh, ZNF330 / RFU, GPN3 / Fold change vs veh, GPN3 / RFU, C9orf123 / Fold change vs veh, C9orf123 / RFU, N4BP2L2 / Fold change vs veh, N4BP2L2 / RFU, ARFIP1 / Fold change vs veh, ARFIP1 / RFU, FAM179B / Fold change vs veh, FAM179B / RFU, BCL10 / Fold change vs veh, BCL10 / RFU, UHRF1BP1L / Fold change vs veh, UHRF1BP1L / RFU, BET1 / Fold change vs veh, BET1 / RFU, CNOT2 / Fold change vs veh, CNOT2 / RFU, ZNF268 / Fold change vs veh, ZNF268 / Fold change vs veh, ZNF507 / RFU, DGCR2 / Fold change vs veh, DGCR2 / RFU, WDSUB1 / Fold change vs veh, WDSUB1 / Fold change vs veh, HSP90B1 /// MIR3652 / RFU, ADSS / Fold change vs veh, ADSS / RFU, GK / Fold change vs veh, GK / RFU, ZNF148 / Fold change vs veh, ZNF148 / RFU, TAF9 / Fold change vs veh, TAF9 / RFU, SLC1A5 / Fold change vs veh, SLC1A5 / RFU, SLMO2 / Fold change vs veh, SLMO2 / RFU, ABCC4 / Fold change vs veh, ABCC4 / RFU, LOC101060439 /// RAP1B / Fold change vs veh, LOC101060439 /// RAP1B / RFU, RFX7 / Fold change vs veh, RFX7 / RFU, GTPBP10 / Fold change vs veh, GTPBP10 / RFU, CNEP1R1 / Fold change vs veh, CNEP1R1 / RFU, BIVM-ERCC5 /// ERCC5 / Fold change vs veh, BIVM-ERCC5 /// ERCC5 / RFU, ILF3 / Fold change vs veh, ILF3 / RFU 11762660_at / Fold change /veh 11762660_at / RFU VCAN (11757783_s_at) / Fold change /veh VCAN (11757783_s_at) / RFU DDX43 (11728927_at) / Fold change /veh DDX43 (11728927_at) / RFU KRT8 (11758188_x_at) / Fold change /veh KRT8 (11758188_x_at) / RFU NKD1 (11759106_at) / Fold change /veh NKD1 (11759106_at) / RFU SRD5A1 (11742802_a_at) / Fold change /veh SRD5A1 (11742802_a_at) / RFU TPSAB1 /// TPSB2 (11721975_s_at) / Fold change /veh TPSAB1 /// TPSB2 (11721975_s_at) / RFU GSTM3 (11746129_a_at) / Fold change /veh GSTM3 (11746129_a_at) / RFU IL23R (11737362_x_at) / Fold change /veh IL23R (11737362_x_at) / RFU TMEM51 (11727254_a_at) / Fold change /veh TMEM51 (11727254_a_at) / RFU PIWIL2 (11732686_x_at) / Fold change /veh PIWIL2 (11732686_x_at) / RFU ORM1 (11744905_x_at) / Fold change /veh ORM1 (11744905_x_at) / RFU CCDC152 (11743942_at) / Fold change /veh CCDC152 (11743942_at) / RFU ECM1 (11717891_a_at) / Fold change /veh ECM1 (11717891_a_at) / RFU IL23R (11748794_a_at) / Fold change /veh IL23R (11748794_a_at) / RFU TNFAIP8L3 (11732012_x_at) / Fold change /veh TNFAIP8L3 (11732012_x_at) / RFU MBOAT4 (11741988_at) / Fold change /veh MBOAT4 (11741988_at) / RFU 11764193_at / Fold change /veh 11764193_at / RFU TMEM53 (11763286_at) / Fold change /veh TMEM53 (11763286_at) / RFU MAGEB2 (11727129_at) / Fold change /veh MAGEB2 (11727129_at) / RFU TMEM200A (11744735_a_at) / Fold change /veh TMEM200A (11744735_a_at) / RFU CCDC152 (11751479_a_at) / Fold change /veh CCDC152 (11751479_a_at) / RFU FAM211A (11726209_a_at) / Fold change /veh FAM211A (11726209_a_at) / RFU RGS16 (11746705_a_at) / Fold change /veh RGS16 (11746705_a_at) / RFU VCAN (11755009_s_at) / Fold change /veh VCAN (11755009_s_at) / RFU RHOB (11743442_s_at) / Fold change /veh RHOB (11743442_s_at) / RFU RGS16 (11720943_a_at) / Fold change /veh RGS16 (11720943_a_at) / RFU RGS16 (11720944_at) / Fold change /veh RGS16 (11720944_at) / RFU, VPS4B / Fold change vs veh, VPS4B / RFU, CREB1 / Fold change vs veh, CREB1 / RFU, DNAJC13 / Fold change vs veh, DNAJC13 / RFU, GNAQ / Fold change vs veh, GNAQ / RFU, CDK5R1 / Fold change vs veh, CDK5R1 / RFU, ZRANB3 / Fold change vs veh, ZRANB3 / RFU, CUL4A / Fold change vs veh, CUL4A / RFU, CCNY / Fold change vs veh, CCNY / RFU, UFL1 / Fold change vs veh, UFL1 / RFU, COG3 / Fold change vs veh, COG3 / RFU, DIAPH2 / Fold change vs veh, DIAPH2 / RFU, SKA2 / Fold change vs veh, SKA2 / RFU, AFF3 / Fold change vs veh, AFF3 / RFU, LMF1 / Fold change vs veh, LMF1 / RFU, IPO11 / Fold change vs veh, IPO11 / RFU, DFFB / Fold change vs veh, DFFB / RFU, FOXP1 / Fold change vs veh, FOXP1 / RFU, CARD8 / Fold change vs veh, CARD8 / RFU, STRN3 / Fold change vs veh, STRN3 / RFU, ADK / Fold change vs veh, ADK / RFU, RASSF2 / Fold change vs veh, RASSF2 / RFU, WIPF1 / Fold change vs veh, WIPF1 / RFU, LARP1B / Fold change vs veh, LARP1B / RFU, RASA1 / Fold change vs veh, RASA1 / RFU, RB1 / Fold change vs veh, RB1 / RFU, PPFIA1 / Fold change vs veh, PPFIA1 / RFU, MAT2A / Fold change vs veh, MAT2A / RFU, CCT5 / Fold change vs veh, CCT5 / RFU, WDR92 / Fold change vs veh, WDR92 / RFU, CUX1 / Fold change vs veh, CUX1 / RFU, TTC7A / Fold change vs veh, TTC7A / RFU, TMEM135 / Fold change vs veh, TMEM135 / RFU, DEPTOR / Fold change vs veh, DEPTOR / RFU, CPM / Fold change vs veh, CPM / RFU, DNAJB6 / Fold change vs veh, DNAJB6 / RFU, CACNA2D3 / Fold change vs veh, CACNA2D3 / RFU, DTX4 / Fold change vs veh, DTX4 / RFU, TFCP2 / Fold change vs veh, TFCP2 / RFU, GMCL1 /// GMCL1P1 / Fold change vs veh, GMCL1 /// GMCL1P1 / RFU, AEBP2 / Fold change vs veh, AEBP2 / RFU, SNHG1 /// SNORD22 /// SNORD25 /// SNORD26 /// SNORD27 /// SNORD28 /// SNORD29 /// SNORD31 / Fold change vs veh, SNHG1 /// SNORD22 /// SNORD25 /// SNORD26 /// SNORD27 /// SNORD28 /// SNORD29 /// SNORD31 / Fold change (Aza/veh), C12orf56 (ProbeSet 11735607_a_at) / Fold change (ACY-1035/veh), C12orf56 (ProbeSet 11735607_a_at) / Fold change (Aza/veh), FGFR1OP (ProbeSet 11751329_s_at) / Fold change (ACY-1035/veh), FGFR1OP (ProbeSet 11751329_s_at) / Fold change (Aza/veh), VPS36 (ProbeSet 11739960_a_at) / Fold change (ACY-1035/veh), VPS36 (ProbeSet 11739960_a_at) / RFU SYPL1 (11715823_x_at) / Fold change /veh SYPL1 (11715823_x_at) / RFU IGFBP7 (11715501_s_at) / Fold change /veh IGFBP7 (11715501_s_at) / RFU REEP3 (11722064_at) / Fold change /veh REEP3 (11722064_at) / RFU IGLL1 (11728026_x_at) / Fold change /veh IGLL1 (11728026_x_at): dose or concentration left out as unconfirmed
Conditions: ProbeSet 11734937_a_at; LIST B

Nc1ccc(-c2cccs2)cc1NC(=O)c1ccc2c(c1)cc(C1CC1)n2CCN1CCOCC1 [ACY-1035]
RFU, CNOT2: 798.97 RFU
